Entries after “also recorded” stand apart in the source; their conditions may differ. Like-named read-outs stand apart in the source and are kept apart here.
Tests used:
Separase = target: T1, Separase (Homo sapiens, UniProt Q14674); assay: Fluorogenic Separase activity assay using (Rad21)2-Rh110 as substrate; assay type: biochemical; settings: for IC50: (Rad21)2-Rh110 substrate
T1 construct: made in house; host or cells: 293T cells; released from IgG-Agarose by TEV protease
Experimental: The substrate used in this Example is (Rad21)2-Rh110, which has two Rad21 peptide molecules (Asp-Arg-Glu-Ile-Nle-Arg) conjugated to one molecule of Rhodamine 110 (Rh110) (CPC Scientific, Sunnyvale Calif.). The assay was set up using 384-well low volume black polystyrene plates (Corning, N.Y.). Fifteen micro liter of activated Separase (˜5 ng) was mixed with 5 μl of test compound. The cleavage buffer (CB) used to dilute reagents was (30 mM Hepes-KOH pH7.7, 50 mM NaCl, 25 mM NaF, 25 mM KCl, 5 mM MgCl2, 1.5 mM ATP, and 1 mM EGTA). The mixture was incubated at room temperature for 1 h, and then 5 μl of 0.2 mM substrate (Rad21)2-Rh110 was added. The positive control contained Separase, substrate and CB without the test compound. The negative control contained substrate and CB only. After the reaction mixture was incubated at 37° C. for 3 h, the relative fluorescence intensity was measured (without stopping the enzymatic activity) at λex=390 nm/λem=450 nm for […] (AMC) released from Rad21-MCA or λex=490 nm/λem=528 nm for Rh110 released from (Rad21)2-Rh110 using a Synergy™ 4 Multi-Mode Microplate Reader (BioTek Instruments Inc., Winooski, Vt.).
Different amounts of Sepin-1 were mixed with activated Separase for 30 min before substrate (Rad21)2-Rh110 was added. After 3 h incubation at 37° C., the fluorescence intensity of Rh110 was determined. IC50 was calculated using either KaleidaGraph program (Synerge software, Reading, Pa.) or four parameter logistic equation (4-parameter dose-response curve fit): Inhibition of Activity (%)=min+(max−min)/{1+(log [M]/IC50)}^Hill Slop, where “min” and “max” represent minimal and maximal activity inhibition, respectively. Hill Slop is the slope of the curve at its midpoint. To identify the mode of Sepin-1 interacting with Separase, different amounts of both Sepin-1 and (Rad21)2-Rh110 were used in the Separase activity assay.

C57B6 mice = assay: Toxicity of Sepin-1 in mice, single intravenous dose; assay type: in vivo
Experimental: To investigate the toxicity in mice, Applicants injected Sepin-1 at a single dose in the range of 50-100 mg/kg body weight into C57B6 mice via tail vein.
Based on the above results, Applicants expanded this study to identify the Severely Toxic Dose (i.e., dose that causes death or irreversible severe toxicity, in 10% of rodents, STD10) using more mice injected at 75 to 90 mg/Kg range. A dose of 80 mg/Kg was estimated as STD10 for Sepin-1 in these mice.
To test Maximum Tolerated Dose (MTD) and No Observable Effect Level (NOEL) of Sepin-1, Applicants applied 200 μl Sepin-1 (diluted in PBS) one time at an acute dose range of 50 to 100 mg/kg body weight to 8-10 weeks old C57B6 mice (˜25 g) through intravenous tail vein injection (n=3/group). Except for the MTD dose, after Sepin-1 injection, the mice were returned to the cage and their reaction to the drug was monitored from one week to several months. Complete necropsy, blood chemistry and pathology of the Sepin-1 injected mice were carried out by the Comparative Pathology Laboratory at the Baylor College of Medicine.

mice = assay: Repeated intraperitoneal dosing tolerability in mice; assay type: in vivo; settings: 10 mg/kg intraperitoneal injection daily for six weeks, 12 mice
MCF7 xenografts = assay: Growth inhibition of MCF7 xenograft tumors; assay type: in vivo, SCID-beige mice
Experimental: (§1) For treatment studies, MCF7 xenografts (ER+ PR+ HER2−) were generated by injection of one million cultured cells grown under standard in vitro conditions as previously described (Proc. Natl. Acad. Sci. U. S. A 105, 2008, 13033-13038). Donor tumors for PDX lines MC1 and BCM-5471 were divided into small fragments and retransplanted into the fat pat of recipient SCID Beige mice (5 mice per group). When the tumors reached approximately ˜200 mg, mice were treated with either vehicle or Sepin-1. Sepin-1 was injected at dose of 10 mg/kg daily for 5 days a week for 3 weeks. […] Vehicle injected mice served as controls. Size of the xenografts were measured every four days using calipers and tumor weight was estimated using the guidelines by NCI for xenograft evaluation (http://ncifrederick.cancer.gov/Lasp/Acuc/Frederick/Media/Documents/ACUC14.pdf). After 3 weeks treatment, the tumors were harvested and fixed in 10% Buffed Formalin Phosphate (Fisher Scientific, Pittsburgh, Pa.) overnight. The tumor tissues were washed with PBS for 3×30 min; dehydrated for 1 h at 70%, 80%, 90% and 100% two times; and immerged in Xylene several times until the tissues became clear. The samples were embedded in wax and sectioned with 5 μm in thickness. All mice were maintained in accordance with the NIH Guide for the Care and Use of Laboratory Animals with approval from the Baylor College of Medicine Institutional Animal Care and Use Committee.

[1] = tested on: BCM-5471 triple-negative breast tumor xenograft; assay: Growth inhibition of patient-derived xenograft BCM-5471; assay type: in vivo, SCID-beige mice; settings: 10 mg/kg intraperitoneal injection, three week treatment
Text: Patient-derived xenograft (PDX) lines MC1 (ER− PR− HER2−) (Proc Natl Acad Sci USA. 100, 2003, 3983-3988) and BCM-5471 (ER− PR− HER2−) (Cancer Res. 73, 2013, 4885-4897) were maintained as described (Cancer Res. 73, 2013, 4885-4897) by serial transplantation into SCID Beige immunocompromised host mice whose endogenous mammary epithelium was removed surgically (Cancer Res. 19, 1959, 515-20).
as §1, with “The tumor tissues were washed with PBS for 3×30 min; dehydrated for 1 h at 70%, 80%, 90% and 100% two times; and immerged in Xylene several times until the tissues became clear. The samples were embedded in wax and sectioned with 5 μm in thickness. All mice were maintained in accordance with the NIH Guide for the Care and Use of Laboratory Animals with approval from the Baylor College of Medicine Institutional Animal Care and Use Committee.” left out

[2] = <80 mg/kg single dose via tail vein
[3] = MCF7 xenograft tumors treated with Sepin-1 versus vehicle

T1 sequence (Q14674 whole entry): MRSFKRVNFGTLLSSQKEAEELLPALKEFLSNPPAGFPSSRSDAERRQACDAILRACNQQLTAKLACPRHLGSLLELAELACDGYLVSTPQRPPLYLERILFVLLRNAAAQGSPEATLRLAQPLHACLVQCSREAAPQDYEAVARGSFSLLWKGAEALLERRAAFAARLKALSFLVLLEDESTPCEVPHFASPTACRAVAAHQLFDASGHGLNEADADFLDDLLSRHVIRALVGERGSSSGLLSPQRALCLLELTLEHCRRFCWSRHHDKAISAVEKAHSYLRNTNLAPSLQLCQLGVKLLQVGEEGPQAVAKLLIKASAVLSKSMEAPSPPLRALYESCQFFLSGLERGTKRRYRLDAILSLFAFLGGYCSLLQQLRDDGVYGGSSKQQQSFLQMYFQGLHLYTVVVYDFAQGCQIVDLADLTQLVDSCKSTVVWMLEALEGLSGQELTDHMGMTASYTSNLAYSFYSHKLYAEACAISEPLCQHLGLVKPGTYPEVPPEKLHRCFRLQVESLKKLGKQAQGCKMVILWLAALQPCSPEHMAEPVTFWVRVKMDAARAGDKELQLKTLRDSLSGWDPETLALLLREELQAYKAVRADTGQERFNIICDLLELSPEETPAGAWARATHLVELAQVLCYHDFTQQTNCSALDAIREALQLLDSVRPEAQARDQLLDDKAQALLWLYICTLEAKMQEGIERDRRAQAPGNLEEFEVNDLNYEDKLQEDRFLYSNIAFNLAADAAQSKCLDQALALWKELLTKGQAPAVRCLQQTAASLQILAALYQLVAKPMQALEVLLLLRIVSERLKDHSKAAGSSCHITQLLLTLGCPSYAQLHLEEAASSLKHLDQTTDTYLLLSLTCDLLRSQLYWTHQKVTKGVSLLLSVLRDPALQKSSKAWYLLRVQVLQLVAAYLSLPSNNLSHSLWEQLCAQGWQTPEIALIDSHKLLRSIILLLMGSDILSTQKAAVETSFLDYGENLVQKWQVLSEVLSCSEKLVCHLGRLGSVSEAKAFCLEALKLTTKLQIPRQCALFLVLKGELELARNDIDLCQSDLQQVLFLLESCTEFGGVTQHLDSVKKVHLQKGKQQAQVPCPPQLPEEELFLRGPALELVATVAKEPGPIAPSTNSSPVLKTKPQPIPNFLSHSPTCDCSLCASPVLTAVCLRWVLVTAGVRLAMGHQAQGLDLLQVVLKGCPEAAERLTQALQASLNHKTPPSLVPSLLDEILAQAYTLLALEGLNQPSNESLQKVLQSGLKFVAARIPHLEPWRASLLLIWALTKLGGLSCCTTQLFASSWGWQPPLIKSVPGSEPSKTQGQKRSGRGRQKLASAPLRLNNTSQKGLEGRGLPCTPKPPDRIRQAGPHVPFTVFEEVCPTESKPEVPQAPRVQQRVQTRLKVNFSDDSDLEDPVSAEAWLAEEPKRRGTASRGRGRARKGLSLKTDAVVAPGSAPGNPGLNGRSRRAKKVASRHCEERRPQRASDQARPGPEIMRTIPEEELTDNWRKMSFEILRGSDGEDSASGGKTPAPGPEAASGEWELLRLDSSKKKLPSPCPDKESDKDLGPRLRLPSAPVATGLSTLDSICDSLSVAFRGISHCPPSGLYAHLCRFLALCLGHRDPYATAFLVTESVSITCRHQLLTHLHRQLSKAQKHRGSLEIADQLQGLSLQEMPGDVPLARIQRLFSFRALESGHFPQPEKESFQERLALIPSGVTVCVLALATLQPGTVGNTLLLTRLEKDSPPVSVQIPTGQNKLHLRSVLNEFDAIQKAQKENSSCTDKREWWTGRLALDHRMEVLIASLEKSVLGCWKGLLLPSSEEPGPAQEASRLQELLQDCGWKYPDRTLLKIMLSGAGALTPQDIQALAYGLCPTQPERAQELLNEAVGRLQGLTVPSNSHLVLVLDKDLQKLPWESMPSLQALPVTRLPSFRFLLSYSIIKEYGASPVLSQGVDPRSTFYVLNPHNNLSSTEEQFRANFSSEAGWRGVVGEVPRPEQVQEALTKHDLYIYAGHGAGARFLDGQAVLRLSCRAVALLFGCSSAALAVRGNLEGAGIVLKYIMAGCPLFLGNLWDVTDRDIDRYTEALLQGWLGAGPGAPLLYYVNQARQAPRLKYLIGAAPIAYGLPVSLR

In the case of `CC1(C)[N+]([O-])=c2ccc([N+](=O)[O-])cc2=[N+]1[O-]` [Sepin-1, 2,2-dimethyl-5-nitro-2H-benzimidazole-1,3 dioxide], the “effect of 0.1% Tween-20 or 1% BSA on inhibition kinetics” value (Separase; 0.1% Tween-20 or 1% BSA in the reaction mixture) is reported as “did not affect the kinetics of Sepin-1 in inhibiting Separase activity”, the IC50 (Separase; calculated using KaleidaGraph, read-out: IC50 of Separase activity inhibition) is reported as 14.8 µM and the IC50 (Separase; four-parameter fit, n=3, read-out: estimated IC50, four-parameter dose-response curve fit) is reported as 15.8 µM. The “dose dependence of Separase activity inhibition” value (Separase; FIG. 9B) was “dose-dependent inhibition of Separase activity”, the “mode of inhibition (effect on Km and Vmax)” value (Separase; Lineweaver-Burk plot, Sepin-1 mixed with Separase 30 min before substrate) was “did not affect the Km but reduced the Vmax; also recorded: reduced the speed (Vmax) of substrate conversion by Separase, but not the Km” and the “verified activity in inhibiting Separase enzymatic activity” value (Separase; re-test of HTS hits) was “highest activity”. For the same compound, the “time to death after injection” value (C57B6 mice; 90 mg/kg single dose via tail vein) was 30 to 90 min, the “effect of dose <80 mg/kg” value (C57B6 mice; [2]) was “no apparent effect” and the survival after injection (C57B6 mice; [2]) was “over 6 months”. The “Severely Toxic Dose in 10% of rodents (STD10)” value (C57B6 mice; mice injected at 75 to 90 mg/Kg range) was 80 mg/kg, the “histopathology of major organs” value (C57B6 mice; mouse, in vivo) was “no significant lesions in major organs” and the “weight loss and adverse effects” value (mice) was “no weight loss or apparent adverse effects”. The “growth of MCF7 xenograft tumors” value (MCF7 xenografts; 10 mg/kg daily, 5 days a week, 3 weeks) was “inhibits the growth of xenograft tumor derived from MCF-7”, the “apoptotic bodies in H&E stained tumor sections” value (MCF7 xenografts; [3]) was “increase of apoptotic bodies” and the “cleaved caspase-3 staining of tumor sections” value (MCF7 xenografts; [3]) was “significantly increased”. For the same compound, the “growth of xenograft BCM-5471 versus vehicle” value [1] was “no significant difference in growth; also recorded: more sensitive to Sepin-1 than MC-1 tumors”.

Reference: patent US10052310B2, “Separase inhibitors and uses thereof” (Baylor College of Medicine, priority 2013, dated 2018)
